Assay results: US20230116114A1, “COMPOUNDS AND COMPOSITIONS FOR TREATING CNS DISORDERS” (Blue Oak Pharmaceuticals, Inc., priority 2020, published 2023)
Where a name gives a salt, the structure may show the parent alone.

System: mice
Test: SmartCube in vivo neuropharmacological behavioral assay
Settings: for minimal effective dose: Mus musculus, ip, 0.25 h, dose having 50% or more total activity in SmartCube, i.p., read-out: MED (minimal effective dose); for AD: antidepressant (percent probability) / AG: analgesic (percent probability) / AP: antipsychotic (percent probability) / AX: anxiolytic (percent probability) / CE: cognitive enhancer (percent probability) / HA: hallucinogenic (percent probability) / MS: mood stabilizer (percent probability) / PS (percent probability) / SD: sedative hypnotic (percent probability) / SE: side effects (percent probability) / UN: uncharacterized CNS activity (percent probability) / XG: anxiogenic (percent probability): SmartCube, i.p. 15 min before test, result at the MED
Description: The compounds were evaluated for their CNS related properties (e.g., the treatment, prevention or diagnosis of CNS or CNS-related disorders and/or amelioration of symptoms) using neuropharmacological screening methods described in S. L. Roberts et al., Front. Neurosci. 2011, 5:103 (hereinafter referred to as “Roberts,” the contents of which are incorporated herein by reference in their entirety).
According to Roberts, intact systems are useful in detecting improvement in disease-relevant endpoints, because psychiatric diseases generally result from disorders of cell-cell communication or circuitry. The endpoints are typically behavioral in nature, often requiring human observation and interpretation. In order to test multiple compounds for behavioral effects relevant to neurological and psychiatric diseases and disorders, PsychoGenics, Inc. (Paramus, N.J. “PGI”) developed SmartCube®, an automated system in which behaviors of compound-treated mice are captured by digital video and analyzed with computer algorithms to facilitate testing of multiple compounds for behavioral effects relevant to psychiatric disease. (D. Brunner et al., Drug Discov. Today 2002, 7:S107-S112; Alexandrov et al., Eur. J. Pharmacol. 2015, 753:127-134; the contents of each of which are incorporated herein by reference in their entirety).
The SmartCube® system is described in Example 2.2 of U.S. Pat. No. 9,758,529 and Example 289 of WIPO Publication No. WO2018/023070, the contents of each of which are incorporated herein by reference in their entirety.
According to the present disclosure, compounds identified may be evaluated using the SmartCube® system. The results of such analysis correlate certain patterns or combinations of behaviors to CNS effects along a percent probability scale of 0-100 where zero (0) reflects the limit of quantitation (LOQ).
The compounds of the present disclosure were evaluated for their CNS related properties (e.g., the treatment, prevention or diagnosis of CNS or CNS-related disorders and/or amelioration of symptoms) using neuropharmacological screening methods described in S. L. Roberts et al., Front. Neurosci. 2011, 5:103 (hereinafter referred to as “Roberts,” the contents of which are incorporated herein by reference in their entirety).
The SmartCube® system described herein was utilized to compare the behavioral signature of a test compound to a database of behavioral signatures obtained using a large set of diverse reference compounds (including but not limited to antipsychotics, anxiolytics, antidepressants and bipolar disorder medicine), thereby predicting the neuropharmacological effects of a test compound by similarity to major classes of compounds. It produces an activity signature indicating the probability that the activity of the test compound at the administered dose matches a given class of neuropharmacological agents. The test compound is simultaneously compared against multiple classes of agents; thus, a separate probability is generated for each behavioral effect measured (such as but not limited to anxiolytic activity and analgesic activity).
The compounds of the present disclosure were dissolved in a mixture of Pharmasolve™ (N-methyl-2-pyrrolidone (NMP)) and were injected i.p. 15 min. before the behavioral test. For each compound, injections were administered at different dose levels (e.g., 0.3, 1, 3, 10 and 30 mg per kg (mpk)). A compound's minimal effective dose (MED; see Table 3) is a measure of the compound's potency. The MED was defined as the dose (in mpk) having 50% or more total activity in SmartCube®. For each behavioral effect measured, results at the MED are presented. CNS activities of the compounds were recorded (see Table 2). In Table 1, a key to the percent probabilities (probability ×100) for each behavioral effect (“X”) are defined provided, where LOQ is the limit of quantification.

SMILES	minimal effective dose [mg/kg]	AD: antidepressant (percent probability)	AG: analgesic (percent probability)	AP: antipsychotic (percent probability)	AX: anxiolytic (percent probability)	CE: cognitive enhancer (percent probability)	HA: hallucinogenic (percent probability)	MS: mood stabilizer (percent probability)	PS (percent probability)	SD: sedative hypnotic (percent probability)	SE: side effects (percent probability)	UN: uncharacterized CNS activity (percent probability)	XG: anxiogenic (percent probability)
CC(C)C(C)N1C2CCCC1c1ccccc12 (stereo not shown) [Compound 22, 12-(3-Methylbutan-2-yl)-12-azatricyclo[6.3.1.0^2,7]dodeca-2,4,6-triene hydrochloride]	1 to 10	++ (5% ≤ X < 25%)	+ (LOQ ≤ X < 5%)	+ (LOQ ≤ X < 5%)	+ (LOQ ≤ X < 5%)	+ (LOQ ≤ X < 5%)	+ (LOQ ≤ X < 5%)	+ (LOQ ≤ X < 5%)	+ (LOQ ≤ X < 5%)	+ (LOQ ≤ X < 5%)	+ (LOQ ≤ X < 5%)	++++ (50% ≤ X < 100%)	+ (LOQ ≤ X < 5%)
CCCN1C2CCCC1c1ccccc12 [Compound 7, 12-Propyl-12-azatricyclo[6.3.1.0^2,7]dodeca-2,4,6-triene hydrochloride]	10 to 30	++ (5% ≤ X < 25%)	+++ (25% ≤ X < 50%)	+ (LOQ ≤ X < 5%)	++ (5% ≤ X < 25%)	+ (LOQ ≤ X < 5%)	+ (LOQ ≤ X < 5%)	+ (LOQ ≤ X < 5%)	++ (5% ≤ X < 25%)	+ (LOQ ≤ X < 5%)	+ (LOQ ≤ X < 5%)	+ (LOQ ≤ X < 5%)	+ (LOQ ≤ X < 5%)
c1ccc2c(c1)C1CCCC2N1C1CC1 [Compound 15, 12-Cyclopropyl-12-azatricyclo[6.3.1.0^20.7]dodeca-2,4,6-triene hydrochloride]	10 to 30	++++ (50% ≤ X < 100%)	++ (5% ≤ X < 25%)	+ (LOQ ≤ X < 5%)	++ (5% ≤ X < 25%)	+ (LOQ ≤ X < 5%)	+ (LOQ ≤ X < 5%)	+ (LOQ ≤ X < 5%)	++ (5% ≤ X < 25%)	+ (LOQ ≤ X < 5%)	+ (LOQ ≤ X < 5%)	+ (LOQ ≤ X < 5%)	++ (5% ≤ X < 25%)
CC(C)N1C2CC[C@H](C)C1c1ccccc12 (stereo in doubt) [Compound 33, 9-Methyl-12-(propan-2-yl)-12-azatricyclo[6.3.1.0^2,7]dodeca-2,4,6-triene hydrochloride]	1 to 10	++++ (50% ≤ X < 100%)	+ (LOQ ≤ X < 5%)	+ (LOQ ≤ X < 5%)	+ (LOQ ≤ X < 5%)	+ (LOQ ≤ X < 5%)	+ (LOQ ≤ X < 5%)	+ (LOQ ≤ X < 5%)	+ (LOQ ≤ X < 5%)	+ (LOQ ≤ X < 5%)	+ (LOQ ≤ X < 5%)	+ (LOQ ≤ X < 5%)	+ (LOQ ≤ X < 5%)
FC1CCC2NC1c1ccccc12 (stereo not shown) [Compound 30, 9-Fluoro-12-azatricyclo[6.3.1.0^2,7]dodeca-2,4,6-triene hydrochloride]	> 30	+ (LOQ ≤ X < 5%)	+ (LOQ ≤ X < 5%)	+ (LOQ ≤ X < 5%)	++ (5% ≤ X < 25%)	+ (LOQ ≤ X < 5%)	+ (LOQ ≤ X < 5%)	+ (LOQ ≤ X < 5%)	+ (LOQ ≤ X < 5%)	+ (LOQ ≤ X < 5%)	+ (LOQ ≤ X < 5%)	+ (LOQ ≤ X < 5%)	+ (LOQ ≤ X < 5%)
CCN1C2CCCC1c1ccccc12 [Compound 6, 12-Ethyl-12-azatricyclo[6.3.1.0,]dodeca-2,4,6-triene hydrochloride]	10 to 30	+++ (25% ≤ X < 50%)	++ (5% ≤ X < 25%)	+ (LOQ ≤ X < 5%)	++ (5% ≤ X < 25%)	+ (LOQ ≤ X < 5%)	+ (LOQ ≤ X < 5%)	+ (LOQ ≤ X < 5%)	+ (LOQ ≤ X < 5%)	+ (LOQ ≤ X < 5%)	+ (LOQ ≤ X < 5%)	+ (LOQ ≤ X < 5%)	+ (LOQ ≤ X < 5%)
c1ccc2c(c1)C1CCCC2N1C1CCCCC1 [Compound 13, 12-Cyclohexyl-12-azatricyclo[6.3.1.0^2,7]dodeca-2,4,6-triene hydrochloride]	10 to 30	+++ (25% ≤ X < 50%)	+ (LOQ ≤ X < 5%)	+ (LOQ ≤ X < 5%)	++ (5% ≤ X < 25%)	+ (LOQ ≤ X < 5%)	+ (LOQ ≤ X < 5%)	+ (LOQ ≤ X < 5%)	++ (5% ≤ X < 25%)	+ (LOQ ≤ X < 5%)	+ (LOQ ≤ X < 5%)	+ (LOQ ≤ X < 5%)	+ (LOQ ≤ X < 5%)
